Measurements as given in article PMC11878239, “Biochemical investigations using mass spectrometry to monitor JMJD6-catalysed hydroxylation of multi-lysine containing bromodomain-derived substrates” (RSC Chemical Biology, 2025).
“Also recorded” adds a separate entry of the source.

Target: T1, full-length His6-JMJD6 (Homo sapiens, UniProt Q6NYC1)
T1 construct: An enzyme mixture (10 μL) containing full-length His6-JMJD6 (5 μM; final concentration: 0.05 μM); made in house; host or cells: Escherichia coli BL21 (DE3), pET-28a(+) plasmid
Assay: LC-MS of JMJD6-catalysed hydroxylation under 18O2 or in 18OH2
Assay type: biochemical
Conditions: 2OG 2 mM, FAS 20 μM, LAA 1 mM, peptide 50 μM, Tris pH 7.5, 24 h, room temperature
Procedure: […] The assay solutions were transferred to a custom-made air-tight container, which was then sealed and removed from the anaerobic chamber. […] The container was evacuated and then filled with […] to a pressure of ∼700 mbar. […] The enzyme reactions were incubated for 24 h at room temperature, after which time the container was returned to the anaerobic chamber. The reactions were stopped by the addition of 10%v/v aqueous formic acid (20 μL) and analysed by LC–MS using an Agilent 1290 infinity II LC system comprising a 1290 infinity II multi-sampler and a 1290 infinity II high speed pump connected to an Agilent 6550 accurate mass iFunnel quadrupole time-of-flight (QTOF) mass spectrometer. Samples (6 μL) were injected onto a 2.1 × 50 mm, 1.8 μm ZORBAX RRHD Eclipse Plus C18 column equipped with a UHPLC guard column (Agilent; flow rate: 0.2 mL min^−1). […] Acquired data were analysed using Agilent MassHunter Qualitative Analysis (version B.07.00).
Tris buffer, cofactor and BRD4_511–550 stock solutions were prepared using ^18OH2 (CK Isotopes) and JMJD6 was buffer exchanged into 50 mM Tris (pH 7.5) in ^18OH2. The enzyme reactions were incubated under an ambient atmosphere at room temperature for 24 h, after which the reactions were stopped by the addition of 10%v/v aqueous formic acid (20 μL) and analysed by LC–MS as described above.

LAELQEQLKAVHEQLAALSQPQQNKPKKKEKDKKEKKKEK [BRD4_511–550, 40-mer peptide fragment derived from human BRD4, JMJD6 substrate, prepared by SPPS]
incorporated oxygen in 18OH2 (16O2 atmosphere in 18OH2, JMJD6 2 μM): complete incorporation of ^16O from atmospheric O2
mass shifts / origin of incorporated oxygen under 18O2 (18O2 atmosphere in H2O, JMJD6 2 μM): successive +18 Da shifts; also recorded: originates, at least, predominantly from ^18O2; also recorded: originate predominantly from atmospheric O2
